Test results: ChEMBL document CHEMBL4376865, “Discovery and Characterization of 1H-1,2,3-Triazole Derivatives as Novel Prostanoid EP4 Receptor Antagonists for Cancer Immunotherapy” (J Med Chem, 2020); call rule not given here

Key:
in vitro [1] = conditions: CD1, mouse, liver microsomes
[2] = Metabolic stability in CD1 mouse liver microsomes assessed as compound remaining at 10 uM incubated for 1 hr
CYP2C9 = CYP2C9 (Homo sapiens, UniProt P11712); test: Inhibition of CYP2C9 in human liver microsomes at 20 uM using tolbutamide as substrate incubated for 60 mins by HPLC analysis relative to control; type: ADME; conditions: probe tolbutamide
CYP2B6 = molecular target: T1, CYP2B6 (Homo sapiens, UniProt P20813); test: Inhibition of CYP2B6 in human liver microsomes at 20 uM incubated for 60 mins by HPLC analysis relative to control; type: ADME
T1 sequence (P20813 whole entry): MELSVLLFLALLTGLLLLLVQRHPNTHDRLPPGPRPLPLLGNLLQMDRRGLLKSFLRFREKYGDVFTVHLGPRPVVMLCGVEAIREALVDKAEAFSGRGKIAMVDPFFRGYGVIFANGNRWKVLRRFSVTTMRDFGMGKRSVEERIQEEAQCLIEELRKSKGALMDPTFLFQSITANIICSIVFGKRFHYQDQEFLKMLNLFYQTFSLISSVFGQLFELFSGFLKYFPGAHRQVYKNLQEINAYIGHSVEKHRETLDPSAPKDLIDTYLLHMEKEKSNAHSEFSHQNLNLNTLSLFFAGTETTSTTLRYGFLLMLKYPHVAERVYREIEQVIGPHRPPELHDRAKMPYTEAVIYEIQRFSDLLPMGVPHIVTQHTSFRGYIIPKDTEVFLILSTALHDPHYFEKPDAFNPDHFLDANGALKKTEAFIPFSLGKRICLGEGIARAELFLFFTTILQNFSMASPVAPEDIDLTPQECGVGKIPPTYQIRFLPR

[3] = Clearance in BALB/c mouse at 1 mg/kg, iv measured upto 24 hrs by LC-MS/MS analysis; conditions: in vivo
CYP2D6 = CYP2D6 (Homo sapiens, UniProt P10635); test: Inhibition of CYP2D6 in human liver microsomes at 20 uM using dextromethorphan as substrate incubated for 60 mins by HPLC analysis relative to control; type: ADME; conditions: probe dextromethorphan
CYP1A2 = molecular target: T2, CYP1A2 (Homo sapiens, UniProt P05177); test: Inhibition of CYP1A2 in human liver microsomes at 20 uM using phenacetin as substrate incubated for 30 mins by HPLC analysis relative to control; type: ADME; conditions: probe phenacetin
T2 sequence (P05177 whole entry): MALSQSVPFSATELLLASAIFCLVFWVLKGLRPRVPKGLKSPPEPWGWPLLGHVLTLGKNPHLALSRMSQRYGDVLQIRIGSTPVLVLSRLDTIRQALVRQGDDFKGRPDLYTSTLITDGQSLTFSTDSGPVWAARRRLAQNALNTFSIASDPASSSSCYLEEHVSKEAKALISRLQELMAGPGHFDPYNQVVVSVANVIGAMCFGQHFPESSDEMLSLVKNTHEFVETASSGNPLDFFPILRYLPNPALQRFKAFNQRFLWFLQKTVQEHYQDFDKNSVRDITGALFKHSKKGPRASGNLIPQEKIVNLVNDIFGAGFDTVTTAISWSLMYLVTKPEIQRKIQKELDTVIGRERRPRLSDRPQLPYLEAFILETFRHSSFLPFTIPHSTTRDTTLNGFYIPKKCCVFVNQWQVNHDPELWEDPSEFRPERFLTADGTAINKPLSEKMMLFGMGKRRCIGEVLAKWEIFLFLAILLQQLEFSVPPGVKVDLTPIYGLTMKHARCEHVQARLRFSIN

[4] = molecular target: Prostaglandin E2 receptor EP4 subtype (Homo sapiens, UniProt P35408)
Description: Antagonist activity at human EP4 expressed in CHO cells coexpressing G16-alpha assessed as intracellular calcium flux preincubated for 15 mins followed by addition of PGE2 by calcium flux assay

in vivo [5] = conditions: BALB/c, mouse, po, 5 mg/kg
Description: Oral bioavailability in BALB/c mouse at 5 mg/kg measured upto 24 hrs by LC-MS/MS analysis

[6] = molecular target: T3, Prostaglandin E2 receptor EP3 subtype (Homo sapiens, UniProt P43115)
T3 sequence (P43115 whole entry): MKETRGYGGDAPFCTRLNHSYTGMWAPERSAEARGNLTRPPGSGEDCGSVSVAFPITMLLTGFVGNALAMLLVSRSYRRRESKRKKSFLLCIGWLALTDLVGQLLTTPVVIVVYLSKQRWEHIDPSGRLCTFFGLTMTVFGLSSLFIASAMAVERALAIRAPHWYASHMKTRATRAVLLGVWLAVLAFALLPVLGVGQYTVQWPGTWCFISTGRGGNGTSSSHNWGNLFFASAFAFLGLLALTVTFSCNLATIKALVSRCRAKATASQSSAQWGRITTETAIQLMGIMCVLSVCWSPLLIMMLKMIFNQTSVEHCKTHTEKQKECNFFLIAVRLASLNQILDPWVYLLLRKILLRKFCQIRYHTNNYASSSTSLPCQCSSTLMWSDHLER
Description: Antagonist activity at human EP3 expressed in CHO cells coexpressing G16-alpha assessed as intracellular calcium flux preincubated for 15 mins followed by addition of PGE2 by calcium flux assay

[7] = Half life in BALB/c mouse at 5 mg/kg, po measured upto 24 hrs by LC-MS/MS analysis; conditions: in vivo
in vitro [8] = conditions: human, liver microsomes
in vivo [9] = conditions: BALB/c, mouse, po, 5 mg/kg; remark: listed apart in the source
Description: Cmax in BALB/c mouse at 5 mg/kg, po measured upto 24 hrs by LC-MS/MS analysis

[10] = molecular target: T4, Prostaglandin E2 receptor EP1 subtype (Homo sapiens, UniProt P34995); test: Antagonist activity at human EP1 expressed in CHO cells coexpressing G16-alpha assessed as intracellular calcium flux preincubated for 15 mins followed by addition of PGE2 by calcium flux assay; type: functional, cell-based
T4 sequence (P34995 whole entry): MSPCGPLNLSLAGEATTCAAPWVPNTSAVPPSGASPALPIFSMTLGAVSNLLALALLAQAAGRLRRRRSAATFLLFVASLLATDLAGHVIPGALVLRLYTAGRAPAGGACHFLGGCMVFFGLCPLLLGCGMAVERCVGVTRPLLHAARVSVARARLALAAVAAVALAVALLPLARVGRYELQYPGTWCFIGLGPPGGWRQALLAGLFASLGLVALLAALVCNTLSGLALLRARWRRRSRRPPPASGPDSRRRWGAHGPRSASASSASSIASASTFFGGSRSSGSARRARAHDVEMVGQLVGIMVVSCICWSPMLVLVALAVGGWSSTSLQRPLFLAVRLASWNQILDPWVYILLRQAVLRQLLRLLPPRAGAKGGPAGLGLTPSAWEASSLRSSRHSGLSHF

CYP2E1 = CYP2E1 (Homo sapiens, UniProt P05181); test: Inhibition of CYP2E1 in human liver microsomes at 20 uM using chlorzoxazone as substrate incubated for 60 mins by HPLC analysis relative to control; type: ADME; conditions: probe chlorzoxazone
in vitro [11] = conditions: CD1, mouse, liver microsomes; remark: listed apart in the source
in vitro [12] = conditions: human, liver microsomes; remark: listed apart in the source
in vivo [13] = conditions: BALB/c, mouse, iv, 1 mg/kg
in vivo [14] = conditions: BALB/c, mouse, iv, 1 mg/kg; remark: listed apart in the source
[15] = molecular target: Prostaglandin E2 receptor EP4 subtype (Mus musculus, UniProt P32240); test: Antagonist activity at mouse EP4 expressed in CHO cells coexpressing G16-alpha assessed as intracellular calcium flux preincubated for 15 mins followed by addition of PGE2 by calcium flux assay; type: functional, cell-based
[16] = Half life in BALB/c mouse at 1 mg/kg, iv measured upto 24 hrs by LC-MS/MS analysis; conditions: in vivo
[17] = Volume of distribution at steady state in BALB/c mouse at 1 mg/kg, iv measured upto 24 hrs by LC-MS/MS analysis; conditions: in vivo
[18] = molecular target: Prostaglandin E2 receptor EP2 subtype (Homo sapiens, UniProt P43116)
Description: Antagonist activity at human EP2 expressed in CHO cells coexpressing G16-alpha assessed as intracellular calcium flux preincubated for 15 mins followed by addition of PGE2 by calcium flux assay

[19] = Metabolic stability in human liver microsomes assessed as compound remaining at 10 uM incubated for 1 hr
Cytochrome P450 3A4 = Cytochrome P450 3A4 (Homo sapiens, UniProt P08684); test: Inhibition of CYP3A4 in human liver microsomes at 20 uM using testosterone as substrate incubated for 60 mins by HPLC analysis; type: ADME; conditions: 1 h
[20] = Apparent volume of distribution in BALB/c mouse at 1 mg/kg, iv measured upto 24 hrs by LC-MS/MS analysis; conditions: in vivo
in vivo [21] = conditions: BALB/c, mouse, po, 5 mg/kg; remark: listed apart in the source
Description: AUC (0 to infinity) in BALB/c mouse at 5 mg/kg, po measured upto 24 hrs by LC-MS/MS analysis

Chain of Prostaglandin E2 receptor EP2 subtype (P43116 whole entry): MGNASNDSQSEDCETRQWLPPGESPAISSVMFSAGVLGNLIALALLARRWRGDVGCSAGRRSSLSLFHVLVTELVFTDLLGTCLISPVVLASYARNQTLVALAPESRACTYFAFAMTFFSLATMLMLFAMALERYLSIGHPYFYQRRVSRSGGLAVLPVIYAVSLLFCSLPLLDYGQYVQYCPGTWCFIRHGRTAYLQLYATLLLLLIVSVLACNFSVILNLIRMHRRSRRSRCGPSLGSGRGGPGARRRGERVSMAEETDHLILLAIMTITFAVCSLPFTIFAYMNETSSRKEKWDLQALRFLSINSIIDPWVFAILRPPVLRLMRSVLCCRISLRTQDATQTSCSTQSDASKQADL
Chain of CYP2D6 (P10635 whole entry): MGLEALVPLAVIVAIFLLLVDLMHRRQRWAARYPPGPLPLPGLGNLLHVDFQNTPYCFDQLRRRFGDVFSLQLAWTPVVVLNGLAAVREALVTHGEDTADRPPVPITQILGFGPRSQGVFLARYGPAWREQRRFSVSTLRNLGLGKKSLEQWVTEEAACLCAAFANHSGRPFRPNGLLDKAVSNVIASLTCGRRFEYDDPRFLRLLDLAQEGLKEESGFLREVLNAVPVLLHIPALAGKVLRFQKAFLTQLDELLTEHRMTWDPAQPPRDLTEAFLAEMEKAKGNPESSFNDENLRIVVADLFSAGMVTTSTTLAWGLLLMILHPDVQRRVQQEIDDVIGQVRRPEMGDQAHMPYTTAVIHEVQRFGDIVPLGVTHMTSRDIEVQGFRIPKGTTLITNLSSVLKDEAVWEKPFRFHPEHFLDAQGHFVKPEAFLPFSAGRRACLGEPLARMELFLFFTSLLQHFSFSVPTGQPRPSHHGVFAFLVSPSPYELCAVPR
Chain of Prostaglandin E2 receptor EP4 subtype (Mus musculus, UniProt P32240) (P32240 whole entry): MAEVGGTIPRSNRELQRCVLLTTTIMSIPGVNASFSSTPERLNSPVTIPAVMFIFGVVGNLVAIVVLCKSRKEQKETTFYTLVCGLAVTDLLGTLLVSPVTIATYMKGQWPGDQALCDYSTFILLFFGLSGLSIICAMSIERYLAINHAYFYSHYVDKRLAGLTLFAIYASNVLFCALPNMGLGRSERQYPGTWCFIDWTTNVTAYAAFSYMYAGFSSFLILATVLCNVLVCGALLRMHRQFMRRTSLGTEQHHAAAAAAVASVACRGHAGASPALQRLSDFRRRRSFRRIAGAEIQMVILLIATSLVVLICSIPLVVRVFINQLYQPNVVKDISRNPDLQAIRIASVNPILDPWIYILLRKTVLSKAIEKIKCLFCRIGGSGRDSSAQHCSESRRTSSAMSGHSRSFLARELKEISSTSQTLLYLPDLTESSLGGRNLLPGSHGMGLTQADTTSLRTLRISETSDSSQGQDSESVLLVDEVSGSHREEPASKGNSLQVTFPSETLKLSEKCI
Chain of CYP2E1 (P05181 whole entry): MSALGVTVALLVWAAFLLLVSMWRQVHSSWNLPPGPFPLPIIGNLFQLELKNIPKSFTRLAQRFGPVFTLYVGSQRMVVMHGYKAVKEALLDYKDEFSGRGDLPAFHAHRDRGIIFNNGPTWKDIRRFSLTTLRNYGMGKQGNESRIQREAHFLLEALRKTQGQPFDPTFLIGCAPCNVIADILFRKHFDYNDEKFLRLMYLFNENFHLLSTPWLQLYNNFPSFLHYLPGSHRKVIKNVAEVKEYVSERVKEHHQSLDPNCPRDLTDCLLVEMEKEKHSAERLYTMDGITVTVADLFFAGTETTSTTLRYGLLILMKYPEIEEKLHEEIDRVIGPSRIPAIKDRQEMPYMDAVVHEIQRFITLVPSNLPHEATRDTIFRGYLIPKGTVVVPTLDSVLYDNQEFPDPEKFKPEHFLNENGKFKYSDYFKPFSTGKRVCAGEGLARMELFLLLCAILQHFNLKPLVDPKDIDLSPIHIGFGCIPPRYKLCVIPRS
Chain of CYP2C9 (P11712 whole entry): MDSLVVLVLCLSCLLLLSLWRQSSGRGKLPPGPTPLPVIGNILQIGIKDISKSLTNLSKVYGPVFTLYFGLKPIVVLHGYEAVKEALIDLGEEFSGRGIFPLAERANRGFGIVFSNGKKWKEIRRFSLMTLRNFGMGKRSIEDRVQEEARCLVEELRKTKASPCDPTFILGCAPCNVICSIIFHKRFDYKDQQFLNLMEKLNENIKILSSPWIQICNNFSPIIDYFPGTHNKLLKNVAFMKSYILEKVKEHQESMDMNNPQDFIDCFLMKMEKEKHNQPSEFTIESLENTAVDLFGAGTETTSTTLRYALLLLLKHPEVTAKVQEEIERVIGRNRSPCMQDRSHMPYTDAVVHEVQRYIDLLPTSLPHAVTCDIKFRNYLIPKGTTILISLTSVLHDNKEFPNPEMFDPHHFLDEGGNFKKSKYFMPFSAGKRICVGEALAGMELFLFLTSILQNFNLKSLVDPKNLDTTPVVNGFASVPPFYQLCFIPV
Chain of Prostaglandin E2 receptor EP4 subtype (Homo sapiens, UniProt P35408) (P35408 whole entry): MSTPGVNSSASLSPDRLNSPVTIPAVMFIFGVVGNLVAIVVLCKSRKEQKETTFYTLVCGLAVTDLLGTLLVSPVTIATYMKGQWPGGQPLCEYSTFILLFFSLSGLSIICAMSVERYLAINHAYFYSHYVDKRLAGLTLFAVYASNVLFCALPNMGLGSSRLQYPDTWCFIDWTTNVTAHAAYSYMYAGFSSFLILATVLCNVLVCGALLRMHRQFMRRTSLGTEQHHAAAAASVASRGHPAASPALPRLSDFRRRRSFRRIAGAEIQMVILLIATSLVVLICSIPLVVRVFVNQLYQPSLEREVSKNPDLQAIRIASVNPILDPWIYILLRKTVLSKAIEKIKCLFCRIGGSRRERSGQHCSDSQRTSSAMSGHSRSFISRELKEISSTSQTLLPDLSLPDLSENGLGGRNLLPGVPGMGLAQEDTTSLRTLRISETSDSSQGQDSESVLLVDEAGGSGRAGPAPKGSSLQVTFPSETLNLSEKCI
Chain of Cytochrome P450 3A4 (P08684 whole entry): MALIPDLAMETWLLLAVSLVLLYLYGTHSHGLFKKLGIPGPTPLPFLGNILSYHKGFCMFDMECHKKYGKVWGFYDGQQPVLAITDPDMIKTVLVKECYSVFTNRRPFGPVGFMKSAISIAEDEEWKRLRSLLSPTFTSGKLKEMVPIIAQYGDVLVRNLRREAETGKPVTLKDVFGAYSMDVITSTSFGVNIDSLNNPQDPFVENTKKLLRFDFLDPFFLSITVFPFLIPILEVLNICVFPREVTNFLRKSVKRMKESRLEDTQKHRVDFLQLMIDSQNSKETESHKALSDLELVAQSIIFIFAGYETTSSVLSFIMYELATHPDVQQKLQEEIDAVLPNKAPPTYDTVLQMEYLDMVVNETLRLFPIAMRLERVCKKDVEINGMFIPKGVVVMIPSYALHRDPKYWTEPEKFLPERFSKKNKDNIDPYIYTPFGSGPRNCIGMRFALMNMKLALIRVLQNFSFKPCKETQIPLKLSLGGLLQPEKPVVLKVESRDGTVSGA

SMILES: C[C@H](NC(=O)c1c(-c2ccsc2)nnn1Cc1ccc(C(F)(F)F)cc1)c1ccc(C(=O)O)cc1
- half-life at 1 h, 10 µM (in vitro [1]): > 145 min
- remaining at 1 h, 10 µM [2]: 75.5%
- inhibition at 1 h, 20 µM (CYP2C9): 48%
- inhibition at 1 h, 20 µM (CYP2B6): 28%
- clearance at 24 h [3]: 50 mL/min/kg
- inhibition at 1 h, 20 µM (CYP2D6): 25%
- inhibition at 0.5 h, 20 µM (CYP1A2): 21%
- IC50 [4]: 12.9 nM
- bioavailability at 24 h (in vivo [5]): 40.9%
- IC50 [6]: > 10 µM
- half-life at 24 h [7]: 276 min
- microsomal CLint at 1 h, 10 µM (in vitro [8]): < 9.6 µL/min/mg
- Cmax at 24 h (in vivo [9]): 365 ng/mL
- IC50 [10]: > 10 µM
- inhibition at 1 h, 20 µM (CYP2E1): 63%
- microsomal CLint at 1 h, 10 µM (in vitro [11]): < 9.6 µL/min/mg
- half-life at 1 h, 10 µM (in vitro [12]): > 145 min
- AUC(0-inf) at 24 h (in vivo [13]): 332 ng·h/mL
- Cmax at 24 h (in vivo [14]): 808 ng/mL
- IC50 [15]: 27.5 nM
- half-life at 24 h [16]: 198 min
- Vd at 24 h [17]: 4 L/kg
- IC50 [18]: > 10 µM
- remaining at 1 h, 10 µM [19]: 106%
- inhibition (INH) (Cytochrome P450 3A4): Not Active
- Vd at 24 h [20]: 14.5 L/kg
- AUC(0-inf) at 24 h (in vivo [21]): 654 ng·h/mL
